Test results: article PMC5563081, “Modulating Protein-Protein Interactions of the Mitotic Polo-like Kinases to Target Mutant KRAS” (Cell Chemical Biology, 2017)
Where two headings read alike, the source gives them in different places.

Columns and labels:
[1] = Stability in mouse hepatocytes; assay type: in vitro ADME
[2] = Tolerability and body weight in the xenograft study; assay type: in vivo, mouse; conditions: 50 mg/kg oral, mice; no adverse health observations or recorded weight loss
Experimental: Tumours were established by sub-cutaneous implantation of 2 x 10^6 HCT116 cells suspended in 50% Matrigel into the flanks of a cohort of mice. When a sufficient number of mice had developed tumours of approximately 100mm3, they were randomly assigned to three groups: Vehicle, 50mg/kg Poloppin-II or 200mg/kg Poloppin-II, with 10 mice per group. Mice were treated orally according to their treatment group once every three days. Tumour volume was measured three times per week with calipers. Body weight was measured three times per week. In addition to mice assigned to tumour volume efficacy arm of the study, 16 mice with established HCT116 xenografts were assigned to either Vehicle or 200mg/kg oral dosing groups, with 8 mice per group. 24 hours after a single dose, mice were euthanised, tumours removed, snap frozen and 30-50microgram of lysates were analysed by Western blotting on 4-12% Bis-Tris acrylamide gels, and transferred using the Invitrogen iBlot dry system. Phospho-Histone H3 was detected using Abcam antibody ab5176, beta-actin with Sigma antibody a5316. […] HRP was visualised with ECL-Plus (GE Healthcare).

[3] = system: MEFs KRAS WT p53 MUT; assay: Cell viability in MEFs, KRAS WT p53 MUT; assay type: cell-based; conditions: Mus musculus
Experimental: (§1) KrasWT mouse embryonic fibroblasts (MEFs) were derived from conditional LSL-Trp53^R172H/+ embryos. LSL-Trp53^R172H/+, LSL-Kras^G12D/+ ([Hingorani et al., 2005]) strains were interbred to obtain LSL-Kras^G12D/+, LSL-Trp53^R172H/+ Kras^G12D embryos for MEF preparation. Briefly, MEFs were derived from E13.5 embryos after decapitation and evisceration. Finely minced tissue was passed through a 16-G needle two or three times before dissociated cells were cultured in DMEM with 10% FBS. Cre-mediated recombination to activate the Kras^G12D allele was induced via addition of 500nM 4-OH Tamoxifen to the culture media overnight.

[4] = system: MEFs KRAS MUT p53 MUT; assay: Cell viability in MEFs, KRAS MUT p53 MUT; assay type: cell-based; conditions: Mus musculus
Experimental: as §1

[5] = system: parental HeLa cells; assay: Live-cell imaging of cell fate, parental HeLa; assay type: cell-based, human; conditions: wild-type HeLa
Experimental: (§2) Five x10^4 cells were seeded on each well of 4-well coverglass Lab-Tek chambers in a volume of 800 μl. HeLa-G12D cells were induced with Doxycycline (Dox) 24h before seeding and kept in Dox for the rest of the experiment.
For live cell imaging analysis image sequences were viewed using ImageJ software and cell fate was analysed manually. Time spent in mitosis for different groups was compared with a Kruskal-Wallis test and Dunn's multiple comparison correction.

[6] = system: HeLa-KRAS G12D; assay: GI50 for cell killing, HeLa-KRAS G12D; assay type: cell-based; conditions: Homo sapiens
Experimental: as §2

[7] = system: HCT116 wt; assay: Viability of drug-sensitive parental HCT116 cells; assay type: cell-based; conditions: Homo sapiens, HCT-116, 72 h
Experimental: Viability is represented as percentage survival normalised to DMSO control. […] PCR reactions were carried out using Amplitaq Gold polymerase (Applied Biosystems N8080241) with a 25-cycle programme. […] Prepared samples were submitted for next generation sequencing using MiSeq Nano run with Nextera XT library preparation. Sequencing and subsequent bioinformatics were performed by Cambridge Genomic Services (University Of Cambridge).

[8] = system: HPAF II; assay: Cell viability (SRB), HPAF II; assay type: cell-based; conditions: Homo sapiens, 72 h
Experimental: SW48 Parental, SW48 G12D, Panc-1, HPAF-II, Panc 02.03 and Panc 05.04 cell lines were seeded overnight at 5000 cells per well in a 96 well plate in recommended media (ATCC). Compounds were added the following day and viability was measured at 72h using the sulforhodamine B (SRB) colorimetric assay as follows. Cells were fixed by replacing media with 1% v/v Trichloroacetic Acid (TCA) (Sigma-Aldrich) at 4°C and incubated for 1h also at 4°C. Wells were washed thoroughly with copious amounts of deionised water before staining with Sulforhodamine B (SRB) (Sigma-Aldrich) solution (0.057% w/v in 1% v/v Acetic Acid (VWR)) for 30 min. […] Fluorescence intensity was recorded at Ex540nm / Em590nm using a BMG Pherastar Plus plate reader ([Vichai and Kirtikara, 2006]).
Pancreatic organoids were extracted and cultured as detailed above ([Boj et al., 2015]). […] Full-grown organoids were then treated with compounds for 72h and viability determined using CellTitre Glo 3D assay (Promega). […] The 96 well plates were treated with a dose range of compounds or DMSO, and viability was determined via SRB colorimetric assay. […]
Cells were reverse-transfected with 50nM (SW48 parental, SW48 KRAS G12D and Panc-1) or 25nM (HeLa Flp-In T-REx parental cells) siRNA using Dharmafect (GE Dharmacon) as manufacturer’s recommendations. […] Viability was assessed after 72 hrs, with the SRB colorimetric assay. […]

Compound | half-life [1] | hepatocyte CLint [1] | tolerability during the study [2] | GI50 ([3]; MEFs KRAS WT p53 MUT) | GI50 ([3]; MEFs KRAS WT p53 MUT+4OHT) | GI50 ([4]; MEFs KRAS MUT p53 MUT) | GI50 ([4]; MEFs KRAS MUT p53 MUT+4OHT) | average time in mitosis ([5]; Poloppin at GI50 dose (10μM), 60 min without) | frequency of aneuploid divisions ([5]; Poloppin at GI50 dose, 4% after DMSO) | GI50 [6] | GI50 [7] | EC50 ([8]; read-out: EC50, % survival, HPAF II, All Stars control siRNA, 72 h) | EC50 ([8]; read-out: EC50, % survival, HPAF II, siMET, 72 h)
CN(C)CCNC(=O)c1ccc(-c2ccc(-c3ccc(Cl)cc3)n2-c2ccccc2C(F)(F)F)cc1 [Poloppin-II] | 1.28 h | 18 µL/min/1e6 cells | well tolerated | – | – | – | – | – | – | – | – | – | –
O=C(O)CCc1ccc(-c2ccc(Br)cc2)n1-c1ccccc1C(F)(F)F [Poloppin] | – | – | – | 51.1 ± 1.05 µM | 43.7 ± 1.09 µM | 49.5 ± 1.05 µM | 17.6 ± 1.22 µM | 100 min | 38% | 5 µM | 11.1 µM | 12.4 ± 1.08 µM | 5.6 ± 1.05 µM
